# Results from patent US20160184335A1, “ANTITUMOR AGENT” (KAKUI, CO., LTD., priority 2012, published 2016).
# Read-outs that look alike come from different tables or passages of the source.
# Tests used:
# [1] = test system: DMBA-induced breast cancer; format: in vivo; settings: for changes in body weight: vs control; for general conditions: deaths: 15 rats; for day from which development of tumors was confirmed: control: day 35
# Description: The antitumor effects of cellobiose were examined using the rat DMBA-induced breast cancer model. Specifically, 7-week-old female rats were grouped using body weight as an index, and then 7,12-dimethylbenz[a]anthracene (DMBA) (20 mg/mL/rat) was forcibly administered orally. Two doses of the test substance (4 and 40 mg/kg/day) were forcibly administered orally once a day from the day after grouping for 12 consecutive weeks.
# Fifty-two 6-week-old female rats, Crl: CD (SD) (SPF), were purchased from Charles River Laboratories, Japan Inc. on Mar. 28, 2012 (Number of rats ordered: 50).
# Animals, for which no abnormalities had been confirmed as a result of observation of general conditions during the quarantine and conditioning periods, were selected and then grouped by the stratified continuous randomization method using body weight as an index based on the following table of group composition (Table 1). The remaining animals were excluded from the test groups on the day of grouping and then disposed of after excessive euthanization with ether.
# DMBA was weighed to the required amount using an electronic even Sartorius Laboratory balance (SARTORIUS K.K.). The weighed DMBA was added to a beaker containing sesame oil, and then the solution was stirred using a mighty magnetic stirrer (Koike precision instruments) until the DMBA was completely dissolved. After dissolution, the solution was transferred to a volumetric graduated cylinder and then diluted to a concentration of 20 mg/mL. Upon preparation, countermeasures were taken against chemical hazards to avoid inhalation and adhesion to skin by wearing masks, safety eyeglasses, and gloves. Preparation was performed before use. Any carcinogen remaining after administration was treated as medical waste.
# The carcinogen was administered to each animal after grouping. Specifically, the carcinogen was forcibly administered orally at a dosage of 1 mL/animal using sonde for oral administration (disposable sonde for oral administration, FUCHIGAMI) and glass syringes (disposable syringes, TERUMO Corporation). Administration was performed using masks, safety eyeglasses and gloves in order to avoid inhalation and adhesion to skin.
# Next, the test substance was weighed to the required amount using an electronic Sartorius Analytic balance (SARTORIUS K.K.), and then dissolved in the medium. The resultant was transferred to a volumetric graduated cylinder, and then diluted to concentrations of 0.8 mg/mL and 8.0 mg/mL. Preparation was performed before use. The solution of the test substance (to be administered) that had remained after administration was diluted with a large volume of tap water and then discarded.
# Administration of the test substance began the day after grouping (designated as day 1). The test substance was forcibly administered orally once a day for 12 consecutive weeks.
# Upon administration, the test substance solution was forcibly administered orally at 5 mL/kg/day using sonde for oral administration (disposable sonde for oral administration, FUCHIGAMI) and glass syringes (disposable syringes, TERUMO Corporation) according to the table of group composition. The fluid volume administered was calculated based on the body weight measured on the day closest to the date of administration.
# After administration of the carcinogen, the general conditions were observed every day. Body weight was measured once a week.
# When the development of tumors was confirmed, the number of tumors developed in each animal was measured, and then the tumor volume estimate (mm^3) of each tumor was calculated once a week. In addition, the tumor volume estimate (mm^3) of each tumor was found by shaving the hair around the relevant tumor, measuring the tumor size (major axis “a” and minor axis “b” (mm)) using a vernier caliper, calculating according to the following formula, and then finding the sum of tumor volume estimates of the tumors.
# Tumor volume estimate (mm^3) of each tumor=0.5 ×a×b^2 […]
# [2] = test system: HeLa (human cervical cancer-derived cell line); assay: XTT assay, effect on cell survival (HeLa); format: cell-based
# From the text: (§1) The presence or the absence of the selective cytotoxic activity of the test substance (cellobiose) was examined on various established cell lines.
# (§2) Cell species: HeLa (human cervical cancer-derived cell line), HaCaT (human-derived immortalized keratinocyte) and Hep-G2 (human liver cancer-derived cell line)
# (§3) (Thawing and Passage Culture of Cells) • (1) HeLa, HaCaT, and Hep-G2 cells were thawed and then cultured in various specialized media. • (2) Cells were passaged 2 to 3 times. • (3) Cells that had recovered their growth capacity were used for the test. […]
# [3] = test system: HaCaT (human-derived immortalized keratinocyte); assay: XTT assay, effect on cell survival (HaCaT); format: cell-based
# From the text: as §1, §2, §3
# [4] = test system: Hep-G2 (human liver cancer-derived cell line); assay: XTT assay, effect on cell survival (Hep-G2); format: cell-based
# From the text: as §1, §2, §3
# HeLa cells = assay: Confirmation of the performance of cell proliferation kit (XTT) with HeLa; format: cell-based, human; settings: 500 μM, 3 hours
# Description: (Confirmation of the Performance of Cell Proliferation Kit (XTT)) • (1) HeLa cells were seeded in 16 wells of a 96-well plate at 1×10^4 cells/100 μL/well. • (2) Cells were cultured for 24 hours in a CO2 incubator. • (3) Dexamethasone was added at […] concentrations of 0 (control), 10, 100, and 500 μM (N=4). • (4) After addition, cells were cultured for 3 hours in the CO2 incubator. • (5) 50 μL of an XTT reagent was added. • (6) After addition, cells were cultured for 3 hours in the CO2 incubator. • (7) Absorbance was measured at 450 nm to 500 nm (ref.: 630 nm to 690 nm).
# [5] = any concentration (0.001-10 mg/mL), vs cells before addition
smiles,measurement,setting,value
O=C[C@H](O)[C@@H](O)[C@H](O[C@@H]1O[C@H](CO)[C@@H](O)[C@H](O)[C@H]1O)[C@H](O)CO [cellobiose],effect on development of breast cancer induced by DMBA (overall conclusion),"[1]; 4 and 40 mg/kg/day oral, 12 weeks",suppresses the development of breast cancer that is induced by carcinogenic DMBA
same,changes in body weight,"[1]; high-dose group 40 mg/kg/day oral once a day, 12 weeks",very similar changes to the control group
same,general conditions: deaths,[1]; high-dose group 40 mg/kg/day oral,one death was confirmed on day 76
same,day from which development of tumors was confirmed,[1]; high-dose group 40 mg/kg/day,49 days
same,number of animals having developed tumors,"[1]; high-dose group 40 mg/kg/day, day 49",2
same,number of animals having developed tumors,"[1]; high-dose group 40 mg/kg/day, day 84",11
same,tumor volume estimate vs control,"[1]; high-dose group 40 mg/kg/day, days 42 and 49",significantly lower than those of the control group
same,number of animals having developed tumors,"[1]; high-dose group 40 mg/kg/day, until day 42",no development of tumors was confirmed until day 42
same,changes in body weight,"[1]; low-dose group 4 mg/kg/day oral once a day, 12 weeks",very similar changes to the control group
same,general conditions: deaths,[1]; low-dose group 4 mg/kg/day oral,one death was confirmed on day 4
same,wet weight of tumor vs control,"[1]; low-dose group 4 mg/kg/day, autopsy after 12 weeks",very similar to those of the control group
same,day from which development of tumors was confirmed,[1]; low-dose group 4 mg/kg/day,49 days
same,tumor volume estimate vs control,"[1]; low-dose group 4 mg/kg/day, day 42",significantly lower than those of the control group
same,number of animals having developed tumors,"[1]; low-dose group 4 mg/kg/day, day 49",4
same,number of animals having developed tumors,"[1]; low-dose group 4 mg/kg/day, day 84",11
same,number of animals having developed tumors,"[1]; low-dose group 4 mg/kg/day, until day 42",no development of tumors was confirmed until day 42
same,change in survival rate compared to the control,"[2]; 10 mg/mL, 3 hours, XTT",almost no change in survival rate
same,dead cells or cell morphological changes (photomicrographs),[2]; [5],no influence of other factors such as an increase in dead cells or cell morphological changes
same,change in survival rate compared to the control,"[3]; 10 mg/mL, 3 hours, XTT",almost no change in survival rate
same,dead cells or cell morphological changes (photomicrographs),[3]; [5],no influence of other factors such as an increase in dead cells or cell morphological changes
same,dead cells or cell morphological changes (photomicrographs),"[4]; Hep-G2, any concentration (0.001-10 mg/mL), vs cells before addition",no influence of other factors such as an increase in dead cells or cell morphological changes
same,decrease in survival rate (maximum),"[4]; Hep-G2, high concentration of test substance, 3 hours, XTT",~15%
C[C@@H]1C[C@H]2[C@@H]3CCC4=CC(=O)C=C[C@]4(C)[C@@]3(F)[C@@H](O)C[C@]2(C)[C@@]1(O)C(=O)CO [dexamethasone],decrease in survival rate,HeLa cells,about 40%
